Data as given in patent US9505753B2, “Inhibitors of D-amino acid oxidase” (THE JOHNS HOPKINS UNIVERSITY, priority 2012, dated 2016).

Assays:
Porcine DAAO = Porcine DAAO (Sus scrofa (Pig), UniProt P00371); test: In vitro D-amino acid oxidase (DAAO) assay, porcine enzyme; assay type: biochemical; details: values marked *: Porcine DAAO was used to measure inhibitory potency; read-out: Inhibition of DAAO IC50
Experimental: (§1) A reliable 96-well plate D-amino acid oxidase (DAAO) assay was developed based on previously published reports (J. Biol. Chem. 277: 27782 (2002)). […] All reactions were carried out for 20 min at room temperature in a 100-μL volume in Tris buffer (50 mM, pH 8.5). Additionally, stock solutions and serial dilutions of potential DAO inhibitors were made in 10:90 DMSO:buffer with a final assay DMSO concentration of 1%.

[1] = molecular target: human recombinant D-amino acid oxidase (Homo sapiens (Human), UniProt P14920); test: In vitro D-amino acid oxidase (DAAO) assay, 96-well plate; assay type: biochemical; details: human recombinant DAAO; D-serine 5 mM, FAD 1 μM, 20 min, room temperature, Tris buffer pH 8.5; read-out: Inhibition of DAAO IC50
Experimental: as §1

Porcine DAAO, sequence (P00371 whole entry): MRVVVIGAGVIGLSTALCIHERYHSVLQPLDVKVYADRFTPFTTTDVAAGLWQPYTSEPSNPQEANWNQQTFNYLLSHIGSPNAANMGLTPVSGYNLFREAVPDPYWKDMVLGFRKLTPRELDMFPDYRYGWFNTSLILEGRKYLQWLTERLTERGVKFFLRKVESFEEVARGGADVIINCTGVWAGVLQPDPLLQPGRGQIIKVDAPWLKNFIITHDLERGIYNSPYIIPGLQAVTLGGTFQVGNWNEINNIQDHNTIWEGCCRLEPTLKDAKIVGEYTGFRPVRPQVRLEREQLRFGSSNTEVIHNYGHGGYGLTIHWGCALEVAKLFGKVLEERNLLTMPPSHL
human recombinant D-amino acid oxidase, sequence (P14920 whole entry): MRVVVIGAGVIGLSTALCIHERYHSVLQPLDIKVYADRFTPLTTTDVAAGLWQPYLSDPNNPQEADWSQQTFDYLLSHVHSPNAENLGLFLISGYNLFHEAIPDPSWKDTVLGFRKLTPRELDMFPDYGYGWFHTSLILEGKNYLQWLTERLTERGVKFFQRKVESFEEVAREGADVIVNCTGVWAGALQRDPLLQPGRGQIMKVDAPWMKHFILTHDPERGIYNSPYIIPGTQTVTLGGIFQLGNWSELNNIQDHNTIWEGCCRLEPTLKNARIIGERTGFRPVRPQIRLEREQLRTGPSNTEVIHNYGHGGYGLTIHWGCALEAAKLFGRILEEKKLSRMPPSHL

Structure (SMILES) | IC50 (Porcine DAAO) [nM] | IC50 [1] [nM]
O=c1[nH]c(=O)n(Cc2ccccc2)nc1O [Compound 5t, 2-Benzyl-6-hydroxy-1,2,4-triazine-3,5(2H,4H)-dione] |  | 9000
O=c1[nH]c(=O)n(CC(F)(F)c2ccccc2)nc1O [Compound 10a, 2-(2,2-Difluoro-2-phenylethyl)-6-hydroxy-1,2,4-triazine-3,5(2H,4H)-dione] |  | 400
COc1ccccc1CCn1nc(O)c(=O)[nH]c1=O [Compound 5v, 6-Hydroxy-2-(2-methoxyphenethyl)-1,2,4-triazine-3,5(2H,4H)-dione] |  | 200
O=c1[nH]c(=O)n(CCc2ccc(O)cc2)nc1O [Compound 5xp, 6-Hydroxy-2-(4-hydroxyphenethyl)-1,2,4-triazine-3,5(2H,4H)-dione] |  | 100
O=c1[nH]c(=O)n(CCc2ccc(Cl)cc2)nc1O [Compound 5e, 2-(4-Chlorophenethyl)-6-hydroxy-1,2,4-triazine-3,5(2H,4H)-dione] |  | 30
O=c1[nH]c(=O)n(Cc2ccc3cc(F)ccc3c2)nc1O [Compound 5ab, 2-((6-Fluoronaphthalen-2-yl)methyl)-6-hydroxy-1,2,4-triazine-3,5(2H,4H)-dione] |  | 100
O=c1[nH]c(=O)n(CCc2cccc(O)c2)nc1O [Compound 5wp, 6-Hydroxy-2-(3-hydroxyphenethyl)-1,2,4-triazine-3,5(2H,4H)-dione] |  | 100
O=c1[nH]c(=O)n(CCc2cccc3ccccc23)nc1O [Compound 5n, 6-Hydroxy-2-(2-(naphthalen-1-yl)ethyl)-1,2,4-triazine-3,5(2H,4H)-dione] |  | 100
O=c1[nH]c(=O)n(CCc2ccc(N3CCOCC3)cc2)nc1O [Compound 32, 6-Hydroxy-2-(4-morpholinophenethyl)-1,2,4-triazine-3,5(2H,4H)-dione] | 1000 | 
O=C(Cn1nc(O)c(=O)[nH]c1=O)c1ccccc1 [Compound 20, 6-Hydroxy-2-(2-oxo-2-phenylethyl)-1,2,4-triazine-3,5(2H,4H)-dione] |  | 1000
O=c1[nH]c(=O)n(Cc2ccc3ccccc3c2)nc1O [Compound 5aa, 6-Hydroxy-2-(naphthalen-2-ylmethyl)-1,2,4-triazine-3,5(2H,4H)-dione] |  | 30
O=c1[nH]c(=O)n(CCc2ccccc2F)nc1O [Compound 5d, 2-(2-Fluorophenethyl)-6-hydroxy-1,2,4-triazine-3,5(2H,4H)-dione] |  | 80

Now from value to compound:

IC50 (Porcine DAAO) [nM] | IC50 [1] [nM] | Structure (SMILES)
300 |  | CCOc1ccc(CCn2nc(O)c(=O)[nH]c2=O)cc1 [Compound 10t, 2-(4-Ethoxyphenethyl)-6-hydroxy-1,2,4-triazine-3,5(2H,4H)-dione]
600 |  | Cc1ccc2ccccc2c1Cn1nc(O)c(=O)[nH]c1=O [Compound 10u, 6-Hydroxy-2-((2-methylnaphthalen-1-yl)methyl)-1,2,4-triazine-3,5(2H,4H)-dione]
 | 200 | O=c1[nH]c(=O)n(Cc2cccc3[nH]ccc23)nc1O [Compound 10o, 2-((1H-indol-4-yl)methyl)-6-hydroxy-1,2,4-triazine-3,5(2H,4H)-dione]
 | 200 | O=c1[nH]c(=O)n(CCn2ncc3ccccc32)nc1O [Compound 10h, 2-(2-(1H-indazol-1-yl)ethyl)-6-hydroxy-1,2,4-triazine-3,5(2H,4H)-dione]
 | 200 | O=c1[nH]c(=O)n(CCc2cc(F)cc(F)c2)nc1O [Compound 10r, 2-(3,5-Difluorophenethyl)-6-hydroxy-1,2,4-triazine-3,5(2H,4H)-dione]
 | 300 | O=c1[nH]c(=O)n(CCn2cccn2)nc1O [Compound 10d, 2-(2-(1H-pyrazol-1-yl)ethyl)-6-hydroxy-1,2,4-triazine-3,5(2H,4H)-dione]
 | 3000 | O=c1[nH]c(=O)n(CCN2CCN(c3ccccc3F)CC2)nc1O [Compound 12c, 2-(2-(4-(2-Fluorophenyl)piperazin-1-yl)ethyl)-6-hydroxy-1,2,4-triazine-3,5(2H,4H)-dione]
